Target: IDH1 wt/IDH1 R132H heterodimer (Homo sapiens (Human), UniProt O75874, R132H)
Assay: IDH1 wt/IDH1 R132H heterodimer enzymatic assay, NADPH depletion with diaphorase/resazurin readout
Assay type: biochemical
Details: 300 μM NADP (saturated)
Description: The following describes the experimental procedures that can be used to obtain data on columns 2 and 4 of Table 4 and column 2 of Table 5.
In the primary reaction, the reduction of α-KG acid to 2-HG is accompanied by a concomitant oxidation of NADPH to NADP. The amount of NADPH remaining at the end of the reaction time is measured in a secondary diaphorase/resazurin reaction in which the NADPH is consumed in a 1:1 molar ratio with the conversion of resazurin to the highly fluorescent resorufin.
The mixture of compound, enzyme, and cofactor is pre-incubated at room temperature for 1 hr prior to the addition of alpha-ketoglutarate. To perform the secondary reaction, 10 uL of 1× buffer containing 36 μg/ml diaphorase and […] resazurin is added to the primary reaction and incubated for a further 5 minutes at 25° C. […] Compounds or compound dilutions are prepared in 100% DMSO concentration and diluted 1:50 into the final reaction. […] IC50s are determined.
IDH1 or IDH2 wildtype (wt) and mutant heterodimers are expressed and purified by methods known in the art. […] Host cell contaminants are removed by washing the column with equilibration buffer followed by equilibration buffer containing 20 mM imidazole and 60 mM imidazole to baseline. […]

IDH1 wt/IDH1 R132H heterodimer, sequence (O75874 whole entry R132H): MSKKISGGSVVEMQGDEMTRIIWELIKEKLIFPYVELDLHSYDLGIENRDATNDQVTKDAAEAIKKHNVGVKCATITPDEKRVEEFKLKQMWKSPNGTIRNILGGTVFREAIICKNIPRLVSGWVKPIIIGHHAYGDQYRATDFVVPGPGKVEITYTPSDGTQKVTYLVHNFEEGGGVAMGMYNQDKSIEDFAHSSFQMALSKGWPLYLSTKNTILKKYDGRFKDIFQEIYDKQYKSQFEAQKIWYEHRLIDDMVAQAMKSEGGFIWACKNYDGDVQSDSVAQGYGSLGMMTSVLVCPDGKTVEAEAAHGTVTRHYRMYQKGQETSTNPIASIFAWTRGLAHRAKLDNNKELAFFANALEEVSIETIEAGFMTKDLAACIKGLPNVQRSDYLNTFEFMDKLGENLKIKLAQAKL
IDH1 wt/IDH1 R132H heterodimer, sequence (O75874 whole entry, stated change not applied): as the sequence (O75874 whole entry R132H) above, with H132R counted along it

**Q.** For `FC1(F)CCC(Nc2nc(NC3CCC(F)(F)CC3)nc(-c3nc(C(F)(F)F)cs3)n2)CC1` [Compound 357], which IC50 is on record?
**A.** 50 to 100 nM

Source: US10172864B2, “Therapeutically active compounds and their methods of use” (AGIOS PHARMACEUTICALS, INC, priority 2013, dated 2019)
